The record followed here is US9469615B2, “Quinoxalines and AZA-quinoxalines as CRTH2 receptor modulators” (Merck Sharp & Dohme Corp., priority 2010, dated 2016).

The structures appear in SMILES notation.

This experiment has as its target T1, hCRTH2 (Homo sapiens, UniProt Q9Y5Y4).
T1 construct: expressed in transfected cells; host or cells: HEK (human embryonic kidney) cells expressing hCRTH2; membrane preparation
T1 sequence (Q9Y5Y4 1-395): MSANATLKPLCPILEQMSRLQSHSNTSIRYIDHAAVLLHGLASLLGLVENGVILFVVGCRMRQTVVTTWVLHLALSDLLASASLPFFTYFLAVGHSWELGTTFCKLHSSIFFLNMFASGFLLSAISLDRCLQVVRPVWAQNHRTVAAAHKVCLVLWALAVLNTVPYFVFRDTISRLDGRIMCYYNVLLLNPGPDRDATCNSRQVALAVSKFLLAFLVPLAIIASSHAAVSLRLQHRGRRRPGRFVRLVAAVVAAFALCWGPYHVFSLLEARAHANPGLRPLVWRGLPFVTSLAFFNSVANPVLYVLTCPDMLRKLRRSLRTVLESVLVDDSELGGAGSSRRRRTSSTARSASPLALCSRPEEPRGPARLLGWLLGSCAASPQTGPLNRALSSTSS
As to the kind of experiment: Radioligand binding assay ([3H]PGD2 competition, HEK-hCRTH2 membranes). The procedure, abridged: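 Membranes (8-20 μg protein) from HEK-hCRTH2 cells were incubated 60 min at room temperature with 3.0 nM [3H]PGD2 in 50 mM Tris-HCl pH 7.4, 1 mM EDTA, 2 mM MnCl2, 1% DMSO. Non-specific binding defined with 10 μM PGD2. Bound radioactivity counted after filtration.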

The mark [1] stands for this setting: [3H]PGD2 binding, rated A-E (Table A).

Turning to `O=C(O)CCCCc1nc2cc(C(=O)NC3c4ccccc4CC3O)ccc2nc1-c1ccccc1` (stereo not drawn) [15AQ, 5-{7-[(2-hydroxy-2,3-dihydro-1H-inden-1-yl)carbamoyl]-3-phenylquinoxalin-2-yl}pentanoic acid], the inhibition constant Ki (commonly the equilibrium dissociation constant of an inhibitor or competing ligand from its target) under setting [1] fell in the range of 2.1 to 20 nM.

`O=C(O)CCCCc1nc2cc(C(=O)N3Cc4ccccc4C3)ccc2nc1-c1ccc(Cl)cc1` [compound 607, 5-(3-(4-chlorophenyl)-7-(isoindoline-2-carbonyl)quinoxalin-2-yl)pentanoic acid] gave an inhibition constant (Ki) ([3H]PGD2 competition, Table B) of 0.1 to 2 nM.

Where the note is “[3H]PGD2 competition, Table B”, `O=C(O)CCCCc1nc2cc(C(=O)NC3C(=O)Nc4ccccc43)ccc2nc1-c1ccc(Cl)cc1` (stereo not drawn) [compound 584, 5-(3-(4-chlorophenyl)-7-((2-oxoindolin-3-yl)carbamoyl)quinoxalin-2-yl)pentanoic acid] showed a Ki of 2.1 to 20 nM.

Regarding `CC(CCCc1nc2cc(C(=O)N[C@@H](c3ccccc3)C(F)(F)F)ccc2nc1-c1ccc(Cl)cc1)C(=O)O` (stereo partly drawn) [compound 163, 3-(4-chlorophenyl)-alpha-methyl-7-[[(2,2,2-trifluoro-1(S)-phenylethyl)amino]carbonyl]-2-2-quinoxalinepentanoic acid], the Ki under setting [1] was 2.1 to 20 nM.

Regarding `O=C(O)CCCCc1nc2cc(C(=O)N3CCNC(c4ccccc4)C3)ccc2nc1-c1ccccc1` (stereo not drawn) [15J, 5-{3-phenyl-7-[(3-phenylpiperazin-1-yl)carbonyl]quinoxalin-2-yl}pentanoic acid], the Ki under setting [1] is 2.1 to 20 nM.

Consider `O=C(O)CCCCc1nc2cc(C(=O)N[C@@H]3CCc4ccccc43)ccc2nc1-c1ccc(F)cc1` [compound 229, 7-[[(2,3-dihydro-1H-inden-1(R)-yl)amino]carbonyl]-3 - (4-fluorophenyl)-2-quinoxalinepentanoic acid], for which the Ki under setting [1] lay in the range of 0.1 to 2 nM.

`O=C(O)CCCNc1nc2cc(C(=O)N3CCN(c4ccc(Cl)cc4)CC3)ccc2nc1-c1ccccc1` [44L, 4-((7-(4-(4-chlorophenyl)piperazine-1-carbonyl)-3-phenylquinoxalin-2-yl)amino)butanoic acid]: under setting [1], the inhibitory constant (Ki) was in the range of 2.1 to 20 nM.

As to `O=C(O)CCCCc1nc2cc(C(=O)N[C@H](c3ccc(Cl)cc3)C(F)(F)F)ccc2nc1-c1ccc(Cl)cc1` [16V, 3-(4-chlorophenyl)-7-[[[1(R)-(4-chlorophenyl)-2,2,2-trifluoroethyl]amino]carbonyl]-2-quinoxalinepentanoic acid], the Ki is, setting by setting: under setting [1], 0.1 to 2 nM; ([3H]PGD2 binding, values in text) 2.7 nM.

For the setting “[3H]PGD2 competition, Table B”, `O=C(O)CCCCc1nc2cc(C(=O)N3C[C@@H]4C[C@H]3CN4c3cccc(F)c3)ccc2nc1-c1ccc(Cl)cc1` [compound 677, 5-(3-(4-chlorophenyl)-7-((1S,4S)-5-(3-fluorophenyl)-2,5-diazabicyclo[2.2.1]heptane-2-carbonyl)quinoxalin-2-yl)pentanoic acid] came in with an inhibition constant (Ki) of 2.1 to 20 nM.

In the case of `O=C(O)CCCCc1nc2cc(C(=O)N[C@H]3CCOc4ccc(F)cc43)ccc2nc1-c1ccc(Cl)cc1` [compound 534, (S)-5-(3-(4-chlorophenyl)-7-((6-fluorochroman-4-yl)carbamoyl)quinoxalin-2-yl)pentanoic acid], the inhibition constant Ki ([3H]PGD2 competition, Table B) lay in the range of 2.1 to 20 nM.

On to `C[C@@H](NC(=O)c1ccc2nc(-c3ccc(F)cc3)c(CCCCC(=O)O)nc2c1)c1ccc(F)cn1` [compound 471, (R)-5-(3-(4-fluorophenyl)-7-((1-(5-fluoropyridin-2-yl)ethyl)carbamoyl)quinoxalin-2-yl)pentanoic acid], for which, under “[3H]PGD2 competition, Table B”, the Ki lay within 2.1 to 20 nM.

Under setting [1], `O=C(O)Cc1cccc(CCc2nc3cc(C(=O)N4CCC(c5ccccc5)CC4)ccc3nc2-c2ccc(Cl)cc2)c1` [compound 19, 2-(3-(2-(3-(4-chlorophenyl)-7-(4-phenylpiperidine-1-carbonyl)quinoxalin-2-yl)ethyl)phenyl)acetic acid] showed a Ki of 2.1 to 20 nM.

Compound `O=C(O)CCCCc1nc2cc(C(=O)NCc3ccc(C(F)(F)F)cc3)ccc2nc1-c1ccc(F)cc1` [compound 112] registered an inhibition constant Ki under setting [1] of 2.1 to 20 nM.

Under “[3H]PGD2 competition, Table B”, `O=C(O)CCCCc1nc2cc(C(=O)N3CCC(N4CCCCC4)CC3)ccc2nc1-c1ccc(Cl)cc1` [compound 337, 5-(7-([1,4′-bipiperidine]-1′-carbonyl)-3 (4-chlorophenyl)quinoxalin-2-yl)pentanoic acid] had a Ki of 20.1 to 200 nM.

In the case of `O=C(O)CCCCc1nc2cc(C(=O)N[C@@H]3CCSc4ccccc43)ccc2nc1-c1ccc(F)cc1` [compound 355, (R)-5-(3-(4-fluorophenyl)-7-(thiochroman-4-ylcarbamoyl)quinoxalin-2-yl)pentanoic acid], for the setting “[3H]PGD2 competition, Table B”, the Ki was in the range of 2.1 to 20 nM.

`CC(CCc1nc2cc(C(=O)N3CC(c4ccccc4)C3)ccc2nc1-c1ccc(C(F)(F)F)cc1)CC(=O)O` (stereo not drawn) [17W, beta-methyl-7-[(3-phenyl-1-azetidinyl)carbonyl]-3-[4-(trifluoromethyl)phenyl]-2-quinoxalinepentanoic acid] returned a Ki under setting [1] of 0.1 to 2 nM.

For `C[C@@H](NC(=O)c1ccc2nc(-c3ccccc3)c(CCCCC(=O)O)nc2c1)c1ccc(F)cc1` [compound 234, 7-[[[1(R)-(4-fluorophenyl)ethyl]amino]carbonyl]-3-phenyl-2-quinoxalinepentanoic acid], the Ki under setting [1] was in the range of 2.1 to 20 nM.

In the case of `O=C(O)CCCCc1nc2cc(C(=O)N3CCC[C@H](c4ccccc4)C3)ccc2nc1-c1ccc(Cl)cc1` [16N, 3-(4-chlorophenyl)-7-[(3(R)-phenyl-1-piperidinyl)carbonyl]-2-quinoxalinepentanoic acid], the Ki under setting [1] lay in the range of 0.1 to 2 nM.

Turning to `O=C(O)CCCCc1nc2cc(C(=O)Nc3ccc(F)cc3)ccc2nc1-c1cccc(F)c1` [3T, 3-(3-fluorophenyl)-7-[[(4-fluorophenyl)amino]carbonyl]-2-quinoxalinepentanoic acid], the Ki under setting [1] lay within 20.1 to 200 nM.

In the case of `COc1ccc(N2CCN(C(=O)c3ccc4nc(-c5ccc(F)cc5)c(CCCCC(=O)O)nc4c3)CC2)cc1` [compound 367, 5-(3-(4-fluorophenyl)-7-(4-(4-methoxyphenyl)piperazine-1-carbonyl)quinoxalin-2-yl)pentanoic acid], the Ki ([3H]PGD2 competition, Table B) was 2.1 to 20 nM.

As for `CC1(C)CCC(NC(=O)c2ccc3nc(-c4ccc(Cl)cc4)c(CCCCC(=O)O)nc3c2)c2ccccc21` (stereo not drawn) [compound 556], the inhibition constant Ki ([3H]PGD2 competition, Table B) lay within 2.1 to 20 nM.

With `O=C(O)CCCCc1nc2cc(C(=O)N3CC[C@@H](c4ccccc4)C3)ccc2nc1-c1ccccc1` [compound 140, 3-phenyl-7-[(3(S)-phenyl-1-pyrrolidinyl)carbonyl]-2-quinoxalinepentanoic acid], the Ki under setting [1] lay in the range of 0.1 to 2 nM.

Consider `O=C(O)CCCCc1nc2cc(C(=O)N3C4C=C(c5ccccc5)CC3CC4)ccc2nc1-c1ccccc1` (stereo not drawn) [compound 719, 5-(3-phenyl-7-(3-phenyl-8-azabicyclo[3.2.1]oct-2-ene-8-carbonyl)quinoxalin-2-yl)pentanoic acid], for which the Ki ([3H]PGD2 competition, Table B) lay within 2.1 to 20 nM.

For the compound `O=C(O)CCCCc1nc2cc(C(=O)N[C@@H]3CCS(=O)(=O)c4ccccc43)ccc2nc1-c1ccc(Cl)cc1` [compound 320, (R)-5-(3-(4-chlorophenyl)-7-((1,1-dioxidothiochroman-4-yl)carbamoyl)quinoxalin-2-yl)pentanoic acid], the Ki ([3H]PGD2 competition, Table B) fell in the range of 2.1 to 20 nM.

`O=C(O)Cc1cccc(CCCc2nc3cc(C(=O)N[C@H]4CCCc5ccccc54)ccc3nc2-c2ccc(F)cc2)c1` [compound 270, (S)-2-(3-(3-(3-(4-fluorophenyl)-7-((1,2,3,4-tetrahydronaphthalen-1-yl)carbamoyl)quinoxalin-2-yl)propyl)phenyl)acetic acid] displayed an inhibition constant Ki ([3H]PGD2 competition, Table B) of 201 to 700 nM.

The compound `CCNC(=O)c1ccc2nc(-c3ccccc3)c(CCCCC(=O)O)nc2c1` [15AS, 5-[7-(ethylcarbamoyl)-3-phenylquinoxalin-2-yl]pentanoic acid] registered a Ki under setting [1] of 2.1 to 20 nM.

`O=C(O)CCCCc1nc2cc(C(=O)N3CCN(c4cccc(Cl)c4Cl)CC3)ccc2nc1-c1ccc(Cl)cc1` [compound 635, 5-(3-(4-chlorophenyl)-7-(4-(2,3-dichlorophenyl)piperazine-1-carbonyl)quinoxalin-2-yl)pentanoic acid]: the inhibition constant (Ki) ([3H]PGD2 competition, Table B) lay in the range of 0.1 to 2 nM.

`O=C(O)CCCCc1nc2cc(C(=O)NC3Cc4ccccc4C3)ccc2nc1-c1ccccc1` [15BK, 5-[7-(2,3-dihydro-1H-inden-2-ylcarbamoyl)-3-phenylquinoxalin-2-yl]pentanoic acid] showed a Ki under setting [1] of 0.1 to 2 nM.

Consider `CS(=O)(=O)N1CCC(NC(=O)c2ccc3nc(-c4ccc(Cl)cc4)c(CCCCC(=O)O)nc3c2)c2ccccc21` (stereo not drawn) [compound 605, 5-(3-(4-chlorophenyl)-7-((1-(methylsulfonyl)-1,2,3,4-tetrahydroquinolin-4-yl)carbamoyl)quinoxalin-2-yl)pentanoic acid], for which the inhibition constant Ki ([3H]PGD2 competition, Table B) is 0.1 to 2 nM.

The compound `C[C@@H]1CN(c2ccc(Cl)cc2)CCN1C(=O)c1ccc2nc(-c3ccccc3)c(CCCCC(=O)O)nc2c1` [compound 550, (R)-5-(7-(4-(4-chlorophenyl)-2-methylpiperazine-1-carbonyl)-3-phenyl-quinoxa1in-2-yl)pentanoic acid] came in with a Ki ([3H]PGD2 competition, Table B) of 2.1 to 20 nM.

On to `O=C(O)CCCCc1nc2cc(C(=O)N3CCN(C(=O)OCc4ccccc4)CC3)ccc2nc1-c1ccc(Cl)cc1` [compound 590, 5-(7-(4-((benzyloxy)carbonyl)piperazine-1-carbonyl)-3-(4-chlorophenyl)quinoxalin-2-yl)pentanoic acid], for which the inhibition constant (Ki) ([3H]PGD2 competition, Table B) was 2.1 to 20 nM.

Take `CC(C)NC(=O)c1ccc2nc(-c3ccc(F)cc3)c(CCCCC(=O)O)nc2c1` [5R, 3-(4-fluorophenyl)-7-[[(1-methylethyl)amino]carbonyl]-2-quinoxalinepentanoic acid]: the inhibitory constant (Ki) under setting [1] was 2.1 to 20 nM.
